Measured values taken from patent US7514068B2, “Biphenyl-pyrazolecarboxamide compounds” (Concert Pharmaceuticals Inc., priority 2005, dated 2009).
Like-named read-outs stand apart in the source and are kept apart here.

Assays:
[1] = rat liver microsome assays; cited from earlier work
[2] = RIO-North American trial, cited from earlier work
[3] = RIO-North American Phase III clinical trial, adverse-event associated discontinuations; type: in vivo, human; conditions: 20 mg dose
Source text: In reports of these clinical trials Compound 1 was described as having a good safety profile with relatively low increases in serious adverse events across the different dose groups tested. However, it is clearly less well tolerated in higher doses, with the more common side effects including depression, anxiety, and irritability, and in some but not all studies, significant amounts of nausea. Even in a highly motivated Phase III clinical trial population, a considerable number of dose-dependent discontinuations occurred.

[4] = system: wide range of other neurological receptors; conditions: in vitro receptor binding studies; cited from earlier work
animal models = conditions: cited from earlier work
rats = conditions: cited from earlier work
CB1 vs. CB2 receptor = conditions: in vitro receptor binding studies; cited from earlier work

SMILES | sites of metabolism [1] | first year adverse-event associated discontinuations ([2]; 5 mg dose) [%] | first year adverse-event associated discontinuations ([2]; 20 mg dose) [%] | increase of adverse-event associated discontinuations versus placebo [3] [%] | affinity for a wide range of other neurological receptors [4] | duration of action compared with Compound 1 (animal models) | in vivo effects of cannabinoid agonists (hypothermia, ring immobility, increased tail flick latency) (rats) | selectivity for the CB1 vs. CB2 receptor (CB1 vs. CB2 receptor)
Cc1c(C(=O)NN2CCCCC2)nn(-c2ccc(Cl)cc2Cl)c1-c1ccc(Cl)cc1 [Compound 1, N-(piperidin-1-yl)-5-(4-chlorophenyl)-1-(2,4-dichlorophenyl)-4-methyl-1H-pyrazole-3-carboxamide] | hydroxylation only on the pyrazole 3-substituent | 9.4 | 12.8 | 77 |  |  |  | 
CCc1c(C(=O)NN2CCCCC2)nn(-c2ccc(Cl)cc2Cl)c1-c1ccc(Br)cc1 [Compound 1A, 5-(4-bromophenyl)-1-(2,4-dichlorophenyl)-4-ethyl-N-(1-piperidinyl)-1H-pyrazole-3-carboxamide] |  |  |  |  | little affinity | longer | reverse | highly selective
